Earlier results on 7 compounds are cited in patent US20230112273A1, “Process for Producing an Aroma-Laden Gas, Aroma-Laden Gas, and Use of the Aroma-Laden Gas” (Döhler GmbH, priority 2020, published 2023).

The conditions of the data set: listed beside the composition of the aromatic substances in the laden solid phase (beer, Exemplary Embodiment 1).

On to `CCCCCC(=O)O` [hexanoic acid], for which the Log P (in general, the decadic logarithm of the partition coefficient of the neutral form, usually between octanol and water) is 1.84.
In the case of `CCCCCCCC(=O)OCC` [octanoic acid ethyl ester], the “Log P” value is given as 3.9.
As for `CC(=O)OCCC(C)C` [3-methylbutyl acetate], the “Log P” value is 2.12.
`CCC(C)CO` (stereo not shown) [2-methyl-1-butanol]: the lipophilicity (Log P) is reported as 1.22.
With `CC(C)CO` [isobutanol], the “Log P” value is given as 0.69.
Take `CC(C)CCO` [3-methyl-1-butanol]: the “Log P” value is 1.22.
With `CCCCCCCCCC(=O)O` [decanoic acid], the “Log P” value is given as 3.96.
